Tested on: influenza virus A/New Caledonia/20/99 (H1N1) (hemagglutinin)
Experiment: Influenza virus (hemagglutinin) inhibiting activity with fowl blood cells
Format: biochemical
Settings: A/New Caledonia/20/99 (H1N1) HA split fractions; 0.5% fowl hematid; 4° C., 60 minutes

| Substance | amount of derivative at which influenza virus (hemagglutinin) inhibiting activity was exhibited |
| --- | --- |
| Asparagine-linked Disialoundecaoligosaccharide-myristic Acid Amide [derivative 4] | 95.0 µmol |
| Asparagine-linked Disialoundecaoligosaccharide-stearic Acid Amide [derivative 5] | 47.5 µmol |
| Asparagine-linked Disialoundecaoligosaccharide-decanoic Acid Amide [derivative 3] | 190.0 µmol |
| Asparagine-linked Disialoundecaoligosaccharide-behenic Acid Amide [derivative 6] | 37.5 µmol |
